Source: patent publication US7615244B2, “Glycopeptide and peptide having a kokumi taste imparting function, and method of imparting the kokumi taste to foods” (Ajinomoto Co., Inc., priority 2003, dated 2009)
Marks after values point to notes of the source that are not given here.

Key:
[1] = Organoleptic evaluation of Mentsuyu, paired comparison test; details: added 1 ppb by weight; vs non-added; n = 16
Source text: In order to verify a taste improving function for “Mentsuyu” (a soup for Japanese noodle) in the same manner as in the organoleptic evaluation of Example 1, the three glycopeptides and peptide were each added in an amount of 1 ppb by weight to Mentsuyu prepared according to the formulation shown in the following Table 2. Each resulting solution was subjected to organoleptic evaluation by 16 taste panelists according to a paired comparison test, using non-added Mentsuyu as the control.
In order to verify the taste improving function of a liquid comprising enzymatically decomposed wheat gluten, that is, a seasoning containing the three glycopeptides and peptide, for Mentsuyu, the seasoning comprising enzymatically decomposed wheat gluten (that is, the decolorized liquid of Example 1 from which the activated carbon had been removed) was added in an amount of 0.1% by volume to Mentsuyu prepared according to the formulation shown in Table 2, and then an organoleptic evaluation was performed in the same manner as in Example 1. Organoleptic evaluation was carried out by 20 taste panelists according to a paired comparison test, using the non-added Mentsuyu as the control.

[2] = Organoleptic evaluation of cheese sauce, paired comparison test; details: added 1 ppm by weight; vs non-added; n = 14
Procedure: In order to verify a taste improving function for cheese sauce, the three glycopeptides and peptide were each added in an amount of 1 ppm by weight to a cheese sauce prepared according to the formulation shown in the following Table 4, and then an organoleptic evaluation was performed in the same manner as in Example 1. Each of the sauces added with one of the three glycopeptides and peptide was subjected to organoleptic evaluation by 14 taste panelists according to a paired comparison test, using non-added cheese sauce as the control.
In order to verify the taste improving function of the liquid comprising enzymatically decomposed wheat gluten, that is, a seasoning containing the three glycopeptides and peptide, for cheese sauce, the seasoning comprising enzymatically decomposed wheat gluten (that is, the powdered seasoning of Example 1 formed from the decolorized liquid from which the activated carbon had been removed) was added in an amount of 0.05% by weight to a cheese sauce prepared according to the formulation shown in Table 4, and then an organoleptic evaluation was performed in the same manner as in Example 1. Organoleptic evaluation was carried out by 20 taste panelists according to a paired comparison test, using the non-added cheese sauce as the control.

[3] = Organoleptic evaluation of chicken consommé soup, paired comparison test by taste panelists; details: for Panelists choosing the sample as the one with a stronger kokumi taste: vs non-added soup, n = 16
Procedure: 2 g of a commercially available chicken consommé soup (manufactured by Ajinomoto Co., Inc.) was added to 100 mL of water to prepare a chicken consommé soup, and then each of the fractions was added to the chicken consommé soup. […] These two fractions were each again fractionated by reversed phase HPLC (“Carbon-500” manufactured by Tosoh Corporation). The following conditions were used to obtain two peaks at 44.8 minutes and 46.6 minutes. For the fractionation, two solvents A and B were used. Solvent A was a 0.05% by volume trifluoroacetic acid (TFA) aqueous solution, and Solvent B was a 0.05% by volume TFA 50% by volume acetonitrile aqueous solution. The column was equilibrated with Solvent A. After injecting a sample, the proportion of Solvent B was increased linearly to 100% in 167 min. The fractionated two peaks were analyzed with an LC-MS/MS (liquid chromatography-tandem mass spectrometry), to confirm that the former peak had fragments, that is, [M+H]^+=m/z 1640, 1494, 1478, 1362, 1332, 1316, 1200, 1184, 1038, 876, 819, 673, and 470, and that the latter peak had fragments, that is, [M+H]^+=m/z 1478, 1346, 1332, 1316, 1200, 1184, 1038, 876, 819, 673, and 470. Further, the former and latter peaks were analyzed by some known methods of analysis such as NMR, a peptide sequencer, an enzymatic decomposition treatment, and the like (R.Takahashi, “Biochemical Experiment Methods 23: Method for Studying Glycoprotein Sugar Chain,” published by Gakkai Shuppan Center, 1989), to confirm that the peaks were due to the glycopeptides having the structures represented by Sequence formulas (I) (SEQ ID NO: 1) and (II) (SEQ ID NO: 1), respectively.
In order to confirm the kokumi taste imparting function and the threshold value of the glycopeptides and the peptide represented by Sequence formulas (I) to (III) (SEQ ID NO: 1) (hereinafter, the glycopeptides and the peptide represented by Sequence formulas (I) to (III) may also be referred to as Glycopeptide I, Glycopeptide II, and Peptide III, respectively), Glycopeptide I and Glycopeptide II were each added to a chicken consommé soup in such that the concentration thereof would be 0.1 ppb to 1.0 ppm by weight upon eating, and Peptide III was added to the chicken consommé soup in such that the concentration thereof would be 0.1 ppb to 100 ppm by weight upon eating. As a control, a non-added chicken consommé soup was prepared. For each of the three glycopeptides and peptide, organoleptic evaluation was carried out by 16 taste panelists according to a paired comparison test (the panelists should choose one with a stronger kokumi taste). In the above organoleptic evaluation, there was a significant difference in the effect caused by adding Glycopeptide I or II or Peptide III in the case where the concentration thereof was 1 ppb by weight or more upon eating. Therefore, the lower limit of the threshold value was set to 1 ppb by weight.

[4] = Organoleptic evaluation of beef extract solution, paired comparison test; set-up: key to Kokumi taste vs control (mark): Δ: Equal or inferior in the kokumi taste to the control; O: Stronger in the kokumi taste than the control; OO: Remarkably stronger in the kokumi taste than the control; details: for Kokumi taste vs control (mark): 14 panelists
Procedure: In order to verify a taste improving function for a commercially available beef extract (manufactured by Bordon), the three glycopeptides and peptide were each added in an amount of 10 ppb by weight to a beef extract solution formulated according to the mixing ratio shown in the following Table 6, and then an organoleptic evaluation was performed in the same manner as in Example 1. Each resulting solution was subjected to organoleptic evaluation by 16 taste panelists according to a paired comparison test, using the non-added beef extract solution as the control. […]
In order to verify a taste improving function for a commercially available beef extract (manufactured by Bordon) in the same manner as in the organoleptic evaluation of Example 1, the glycopeptides and peptides listed in the following Table 15, were each added in an amount of 10 ppb, 1 ppm, or 100 ppm by weight to beef extract solutions formulated according to the mixing ratio shown in Table 6 above. Each resulting solution was subjected to organoleptic evaluation by 14 taste panelists according to a paired comparison test, using the non-added beef extract solution as the control.

Substance	Stronger kokumi taste (panelists) [1]	Stronger kokumi taste (panelists) [2]	Panelists choosing the sample as the one with a stronger kokumi taste ([3]; amount added 0.1 ppb)	Panelists choosing the sample as the one with a stronger kokumi taste ([3]; amount added 1.0 ppb)	Panelists choosing the sample as the one with a stronger kokumi taste ([3]; amount added 1.0 ppm)	Panelists choosing the sample as the one with a stronger kokumi taste ([3]; amount added 10 ppb)	Panelists choosing the sample as the one with a stronger kokumi taste ([3]; amount added 100 ppm)	Lower limit of the threshold value (kokumi taste imparting function) ([3]; concentration upon eating giving a significant difference vs non-added soup) [ppb by weight]	Kokumi taste vs control (mark) ([4]; added 1 ppm by weight)	Kokumi taste vs control (mark) ([4]; added 10 ppb by weight)	Stronger kokumi taste (panelists) ([4]; added 10 ppb by weight, vs non-added, n = 16)	Kokumi taste vs control (mark) ([4]; added 100 ppm by weight)
Val-Asn-His-Thr (VNHT; printed: Val-Asn-His-Thr) [Peptide III]	13*	12*	9	13*	16***	14**	16***	1	◯◯	◯◯	13*	◯◯
His-Ser [reference compound]									Δ	Δ		Δ
Val-Asn [reference compound]									Δ	Δ		Δ
Asn-His-Thr									◯◯	◯		◯◯
Val-Asn-His									◯◯	◯		◯◯
Val-Gln [reference compound]									Δ	Δ		Δ
Asn-His									◯	◯		◯◯
